Assay [1] has as its system vulvovaginal candidiasis. Particulars: in vivo; cited from earlier work.
Assay [2] relates to Candida albicans. Particulars: in vitro; cited from earlier work.
Assay [3] has as its system Pseudomonas aeruginosa. Particulars: microtiter broth, 35.5° C., 18 to 24 hours. On the procedure:
(§1) The susceptibility of selected pathogens to individual and mixtures of acetic and boric acid was investigated, in vitro. Fresh isolates of Staphylococcus intermedius, Pseudomonas aeruginosa, Candida albicans, Microsporum canis and Malassezia pachydermatis were obtained from VHUP Clinical Veterinary Microbiology Laboratory. Staphylococcus and Pseudomonas were grown on Mueller-Hinton (M-H) broth overnight at approximately 37° C. and fungi were inoculated into Sabourauds Antibiotic broth medium and incubated at 25° C. for 4 days. Stock dilutions (2x) of both boric acid and acetic acid were prepared in M-H broth (for bacteria studies) or in Sabourauds Antibiotic Broth (for fungal studies). These concentrations were 1.0%, 4.0%, 7.5% and 10.0%. The stock solutions were used to prepare the full spectrum of all possible combinations of acetic and boric acids in 96 well microtiter plates. All wells were raised to a final volume of 100 ul as required. The organisms were diluted to an approximate concentration of 10^5 cfu and 10 ul of this preparation was inolculated into each well with an 8 channel micropipeter. The microtiter plates containing the bacteria were incubated at 35.5° C. for 18 to 24 hours. The plates containing the fungi were incubated at 25° C. for 3-5 days. The presence of the growth in the wells was recorded. These values determine the Minimum Inhibitory Concentration (MIC) of the acids at individual and mixed concentrations.

Assay [4] concerns Staphylococcus intermedius. Particulars: microtiter broth, 35.5° C., 18 to 24 hours. As for the experimental part:
as §1

In assay [5] the test system is Candida albicans. Particulars: microtiter broth, 25° C., 3-5 days. On the procedure:
as §1

Assay [6] has as its system fungi causing otomycosis. As to conditions: in vitro, five fungi; cited from earlier work.

Consider `OB(O)O` [Boric acid, boric acid], for which the “efficacy in treating vulvovaginal candidiasis” value in assay [1] is listed as “effective”. Also, the “activity against Candida albicans” value in assay [2] was “fungistatic”. The growth inhibition entry in assay [3], in assay [4] and in assay [5] was “inhibited” throughout.

With `CC(=O)O` [acetic acid], the fungitoxic effect entry in assay [6] is “Some antifungal effect”.
